# Data: patent US20040084867A1, “Individualization of therapy with anticoagulants” (Xanthus Life Sciences, Inc., priority 2002, published 2004)
# Like-named read-outs stand apart in the source and are kept apart here. Marks after values point to notes of the source that are not given here.
# Tests used:
# [1] = test system: CYP2C9; settings: cited from earlier work
# [2] = test system: individuals with acute myocardial infarction; settings: in vivo; cited from earlier work
# [3] = test system: individuals with acute myocardial infarction; settings: cited from earlier work
# [4] = test system: individuals with evolving myocardial infarction; settings: cited from earlier work; for combined incidence of death or nonfatal hemorrhagic stroke: TPA group vs groups receiving streptokinase
# [5] = test system: poor vs. extensive metabolizers; settings: cited from earlier work
# [6] = cited from earlier work
# [7] = test system: slow and fast acetylators; settings: cited from earlier work
# [8] = test system: 1X-Ab; assay: Competitive antigen ELISA, cross-reactivity of 1X-Ab; type: binding, rabbit; settings: for % Cross-Reaction, 1X-Ab: competitive antigen ELISA, 0 = absence of inhibition or inhibition no higher than 40% at highest concentration tested (5 × 10^−6 M); for [1X] × 10^6 (M), 1X concentration determined by ELISA: fixed 1X 3×10^−6 M
# Experimental: (§1) Buffers and water without additives are filtered through millipore filters and kept for 1 week. BSA, antibodies, Tween™ 20 and horse radish peroxidase conjugates are added to these buffers and water just prior to use. Urine samples are usually collected 4 hours after drinking a cup of coffee (instant or brewed with approximately 100 mg of caffeine per cup) and stored at −80° C. The urine samples are diluted 10 times with sodium phosphate buffer (620 mosm, pH 7.50) and are subsequently diluted with water to give- concentrations of AAMU and 1X no higher than 3×10^−6 M in the ELISA. All the pipettings are done with an eight-channel pipette, except those of the antibody and sample solutions. Starting with the last well, 100 μL of a carbonate buffer (100 mM, pH 9.6) containing 2.5 μg mL^−1 antibodies are added to each well. After 90 min. at room temperature, the wells are washed three times with […] of TPB: isotonic sodium phosphate buffer (310 mosm, pH 7.50) containing 0.05% Tween™ 20.
# (§2) After the initial wash, unoccupied sites are blocked by incubation for 90 min. at room temperature with 100 μL TBP containing 3% BSA. The wells are washed four times with 100 μL TPB. […] The microplate is gently shaken with an orbital shaker at room temperature for 3-4 hours. The wells are washed three times with 100 μL TPB containing 1% BSA and three times with water containing 0.05% Tween™ 20. To the washed plate is added 150 μL of a substrate buffer composed of citric acid (25 mM) and sodium phosphate dibasic buffer (50 mM, pH 5.0) containing 0.06% hydrogen peroxide and 0.04% o-phenylenediamine hydrochloride.
# (§3) Buffers and water without additives were filtered through millipore filters and kept for 1 week. BSA, antibodies, Tween™ 20 and horse radish peroxidase conjugates were added to these buffers and water just prior to use. Urine samples were usually collected 4 hours after drinking a cup of coffee (instant or brewed with approximately 100 mg of caffeine per cup) and stored at −80° C. They were diluted 10 times with sodium phosphate buffer (620 mosm, pH 7.50) and were subsequently diluted with water to give concentrations of AAMU and 1X no higher than 3×10^−6 M in the ELISA. All the pipettings were done with an eight-channel pipette, except those of the antibody and sample solutions. Starting with the last well, 100 μL of a carbonate buffer (100 mM, pH 9.6) containing 2.5 μg mL^−1 antibodies was pipetted. After 90 min. at room temperature, the wells were washed three times with 100 μL of TPB: isotonic sodium phosphate buffer (310 mosm, pH 7.50) containing 0.05% Tween™ 20.
# (§4) After the initial wash, unoccupied sites were blocked by incubation for 90 min. at room temperature with 100 μL TBP containing 3% BSA. The wells were washed four times with 100 μL TPB. […] The microplate was gently shaken with an orbital shaker at room temperature for 3-4 hours. The wells were washed three times with 100 μL with TPB containing 1% BSA and three times with water containing 0.05% Tween™ 20. To the washed plate was added 150 μL of a substrate buffer composed of citric acid (25 mM) and sodium phosphate dibasic buffer (50 mM, pH 5.0) containing 0.06% hydrogen peroxide and 0.04% o-phenylenediamine hydrochloride. After 20 min. at room temperature with shaking, the reaction was stopped with 50 μL of 2.5 N HCl.
# [9] = test system: AAMU-Ab; assay: Competitive antigen ELISA, cross-reactivity of AAMU-Ab; type: binding, rabbit; settings: 0 = absence of inhibition or inhibition no higher than 40% at highest concentration tested (5 × 10^−6 M)
# Experimental: as §1, §2, §3, §4
# [10] = test system: surgical and medical individuals; settings: individuals with hip fracture, begun preoperatively; cited from earlier work
# [11] = test system: individuals with deep vein thrombosis; settings: Hull 1979; proximal DVT, 3 months; heparin 5,000 units sc every 12 hours, sodium warfarin INR 2.5 to 4.5; cited from earlier work
# [12] = test system: coronary artery patency; settings: Heparin-Aspirin Reperfusion Trial, after TPA; aspirin 80 mg per day; cited from earlier work
# [13] = individuals who died before heparin was started excluded
Compound,"% Cross-Reaction, 1X-Ab [8]","% Cross-Reaction, AAMU-Ab [9]",also measured
CC(=O)C[C@@H](c1ccccc1)c1c(O)c2ccccc2oc1=O [S-warfarin],–,–,"↓ in CLpo,u (unbound oral clearance) ([1]; 47 Japanese, an individual with *3/*3): 90% ↓ in CLpo,u for (S)-warfarin in an individual; ↓ in CLpo,u (unbound oral clearance) ([1]; 86 Japanese, 3 individuals with *1/*3): 63% ↓ in CLpo,u for (S)-warfarin in 3 individuals"
tissue plasminogen activator [TPA],–,–,"cerebral hemorrhage rate [2]: 0.66%; excess of episodes of presumed hemorrhagic strokes compared with streptokinase [2]: 4.2 per 1000; excess of strokes compared with streptokinase [2]: 3.5 per 1000; stroke rate [2]: 1.39%; mortality rate ([3]; all individuals): 8.7%; mortality rate [3, 13]: 5.9%; combined incidence of death or nonfatal hemorrhagic stroke [4]: 6.6%; reduction of mortality compared with the streptokinase strategies ([4]; in vivo): 14%"
COc1ccc2c(c1)[C@]13CCCC[C@@H]1[C@H](C2)N(C)CC3 [Dextromethorphan],–,–,mean performance ±SE ([5]; EMs): 95±0.5%; mean performance ±SE ([5]; PMs): 86±6%
vitamin K,–,–,duration of resistance to warfarin ([6]; doses of 5 mg or more): up to 1 week; time to evident partial reversal of the anticoagulant effect of warfarin ([6]; parenteral administration): ≤ 6 h
Nc1ccc(S(=O)(=O)c2ccc(N)cc2)cc1 [dapsone],–,–,adverse reactions ([7]; fast acetylators): 17%; adverse reactions ([7]; slow acetylators): 46%
"Cn1c(=O)[nH]c2[nH]c(=O)n(C)c2c1=O [1,7-Dimethyluric acid]",0%,0%,–
"Cn1c(=O)c2[nH]cnc2n(C)c1=O [1,3-Dimethyl Xanthine (Theophylline), 1,3-Dimethyl Xanthine]",0.2%,0%,–
Dextran,–,–,incidence of thrombosis [10]: 30%
O=c1[nH]c(=O)c2[nH]cnc2[nH]1 [Xanthine],0%,0^a %,–
Cc1nc2[nH]c(=O)[nH]c(=O)c2[nH]1 [8-Methyl Xanthine],0%,0%,–
"Cn1c(=O)c2c(ncn2C)n(C)c1=O [1,3,7-Trimethyl Xanthine (Caffeine), 1,3,7-Trimethyl Xanthine]",0%,0%,–
CC(=O)CC(c1ccccc1)c1c(O)c2ccccc2oc1=O (stereo not drawn) [sodium warfarin],–,–,rate of recurrent venous thromboembolism [11]: 0%
streptokinase,–,–,"cerebral hemorrhage rate [2]: 0.24%; stroke rate [2]: 1.04%; mortality rate ([3]; all individuals): 9.2%; mortality rate [3, 13]: 6.2%; combined incidence of death or nonfatal hemorrhagic stroke [4]: 7.5%"
"Cn1cnc2c1c(=O)[nH]c(=O)n2C [3,7-Dimethyl Xanthine (Theobromine), 3,7-Dimethyl Xanthine]",0%,0%,–
O=c1[nH]c(=O)c2[nH]c(=O)[nH]c2[nH]1 [Uric acid],0%,0%,–
Cn1c(=O)[nH]c2[nH]c(=O)[nH]c2c1=O [1-Methyluric acid],11%,0%,"[1X] × 10^6 (M), 1X concentration determined by ELISA ([8]; 1U:1X ratio 0.50): 2.75 × 10^6 (M); [1X] × 10^6 (M), 1X concentration determined by ELISA ([8]; 1U:1X ratio 1.00): 3.25 × 10^6 (M); [1X] × 10^6 (M), 1X concentration determined by ELISA ([8]; 1U:1X ratio 1.50): 3.25 × 10^6 (M); [1X] × 10^6 (M), 1X concentration determined by ELISA ([8]; 1U:1X ratio 2.00): 3.60 × 10^6 (M); apparent increase of 1X concentration ([8]; 1U:1X ratio 2.5): 22%; [1X] × 10^6 (M), 1X concentration determined by ELISA ([8]; 1U:1X ratio 2.50): 3.65 × 10^6 (M); apparent increase of 1X concentration ([8]; 1U:1X ratio 3.0): 32%; [1X] × 10^6 (M), 1X concentration determined by ELISA ([8]; 1U:1X ratio 3.00): 3.95 × 10^6 (M); [1X] × 10^6 (M), 1X concentration determined by ELISA ([8]; 1U:1X ratio 4.00): 4.20 × 10^6 (M); [1X] × 10^6 (M), 1X concentration determined by ELISA ([8]; 1U:1X ratio 5.00): 4.30 × 10^6 (M); [1X] × 10^6 (M), 1X concentration determined by ELISA ([8]; 1U:1X ratio 6.00): 4.50 × 10^6 (M); [1X] × 10^6 (M), 1X concentration determined by ELISA ([8]; 1U:1X ratio 8.00): 4.30 × 10^6 (M)"
"CC(=O)Nc1c(N)n(C)c(=O)n(C)c1=O [5-Acetamino-6-amino-1,3-dimethyluracil]",0%,0%,–
O=c1cc[nH]c(=O)[nH]1 [Uracil],0%,0%,–
Cn1c(=O)[nH]c(=O)c2[nH]cnc21 [3-Methyl Xanthine],0%,0%,–
O=c1[nH]cnc2nc[nH]c12 [Hypoxanthine],0%,0%,–
CC(=O)Nc1c(N)[nH]c(=O)[nH]c1=O [5-Acetamino-6-amino-uracil],0%,0.6%,–
CC(=O)Oc1ccccc1C(=O)O [aspirin],–,–,Coronary artery patency at 18 hours [12]: 52%
"Cn1c(=O)[nH]c2nc[nH]c2c1=O [1-Methyl Xanthine (1X), 1-Methyl Xanthine]",100%,0%,–
Nc1nc2nc[nH]c2c(=O)[nH]1 [Guanine],0%,0%,–
CC(=O)Nc1c(N)n(C)c(=O)[nH]c1=O [5-Acetamino-6-amino-1-methyluracil],0%,100%,–
"Cn1c(=O)[nH]c2ncn(C)c2c1=O [1,7-Dimethyl Xanthine (Paraxanthine), 1,7-Dimethyl Xanthine]",0.5%,0%,–
Cn1cnc2[nH]c(=O)[nH]c(=O)c21 [7-Methyl Xanthine],0%,0%,–
